From patent US4861778A, “2,3-dihydrophthalazine-1,4-diones” (priority 1986, dated 1989)
Read-outs that look alike come from different tables or passages of the source.

System: serum cholesterol and serum triglyceride
Assay: Hypolipidemic activity of 2,3-dihydrophthalazine-1,4-diones in normal male mice (Example 11, Table II)
Assay type: in vivo, CF1 male mice
Conditions: Mus musculus, ip
Method: Hypolipidemic Activity of 2,3-Dihydrophthalazine-1,4-Diones in Normal Male Mice
Each of the prepared compounds was administered intraperitoneally, in a dosage of 20 milligrams per kilogram of body weight per day, to a group of six CF1 male mice, each weighing approximately 25 grams, for 16 days. On Days 9 and 16 blood was obtained from each of the tested mice by tail vein bleeding. The blood serum so obtained was separated by centrifugation for three minutes. […] Serum triglyceride levels were obtained on Day 16 by use of the Bio-Dynamics/bm Triglyceride Kit.
In addition to the above-described treated mice, an untreated control group of six mice were similarly tested on Days 9 and 16 to determine their serum cholesterol and serum triglyceride blood levels.

[1] = 216 h, CF1 male mice, 20 mg/kg/day intraperitoneally, Day 9, read-out: Serum Cholesterol Day 9, percent control ± standard deviation
[2] = 384 h, CF1 male mice, 20 mg/kg/day intraperitoneally, Day 16, read-out: Serum Cholesterol Day 16, percent control ± standard deviation
[3] = 384 h, CF1 male mice, 20 mg/kg/day intraperitoneally, Day 16, read-out: Serum Triglyceride Day 16, percent control ± standard deviation

Cn1nc(O)c2ccccc2c1=O [Compound 2]
response vs control in vivo at 20 mg/kg/day [1]: 72 ± 5% | response vs control in vivo at 20 mg/kg/day [2]: 77 ± 3% | response vs control in vivo at 20 mg/kg/day [3]: 66 ± 4%

COc1nn(C)c(=O)c2ccccc12 [Compound 3, 2-Methyl-4-Methoxyphthalazine-1(2H)-One]
response vs control in vivo at 20 mg/kg/day [1]: 84 ± 6% | response vs control in vivo at 20 mg/kg/day [2]: 81 ± 5% | response vs control in vivo at 20 mg/kg/day [3]: 64 ± 5%

CCn1[nH]c(=O)c2ccccc2c1=O [Compound 4, 2-Ethyl-2,3-Dihydrophthalazine-1,4-Dione]
response vs control in vivo at 20 mg/kg/day [1]: 71 ± 7% | response vs control in vivo at 20 mg/kg/day [2]: 58 ± 5% | response vs control in vivo at 20 mg/kg/day [3]: 59 ± 4%

CCOc1nn(CC)c(=O)c2ccccc12 [Compound 5]
response vs control in vivo at 20 mg/kg/day [1]: 77 ± 5% | response vs control in vivo at 20 mg/kg/day [2]: 76 ± 4% | response vs control in vivo at 20 mg/kg/day [3]: 57 ± 3%

CCCn1[nH]c(=O)c2ccccc2c1=O [Compound 6, 2-n-propyl-2,3-dihydrophthalazine-1,4-dione]
response vs control in vivo at 20 mg/kg/day [1]: 77 ± 6% | response vs control in vivo at 20 mg/kg/day [2]: 68 ± 5% | response vs control in vivo at 20 mg/kg/day [3]: 62 ± 2%

CCCOc1nn(CCC)c(=O)c2ccccc12 [Compound 7]
response vs control in vivo at 20 mg/kg/day [1]: 68 ± 3% | response vs control in vivo at 20 mg/kg/day [2]: 69 ± 5% | response vs control in vivo at 20 mg/kg/day [3]: 69 ± 2%

CCCCn1[nH]c(=O)c2ccccc2c1=O [Compound 8, 2-n-butyl-2,3-dihydrophthalazine-1,4-dione]
response vs control in vivo at 20 mg/kg/day [1]: 59 ± 2% | response vs control in vivo at 20 mg/kg/day [2]: 58 ± 3% | response vs control in vivo at 20 mg/kg/day [3]: 73 ± 4%

CCCCOc1nn(CCCC)c(=O)c2ccccc12 [Compound 9]
response vs control in vivo at 20 mg/kg/day [1]: 65 ± 4% | response vs control in vivo at 20 mg/kg/day [2]: 61 ± 3% | response vs control in vivo at 20 mg/kg/day [3]: 66 ± 3%

CCCCCn1nc(O)c2ccccc2c1=O [Compound 10]
response vs control in vivo at 20 mg/kg/day [1]: 74 ± 3% | response vs control in vivo at 20 mg/kg/day [2]: 71 ± 5% | response vs control in vivo at 20 mg/kg/day [3]: 55 ± 4%

CCCCCOc1nn(CCCCC)c(=O)c2ccccc12 [Compound 11]
response vs control in vivo at 20 mg/kg/day [1]: 86 ± 6% | response vs control in vivo at 20 mg/kg/day [2]: 63 ± 4% | response vs control in vivo at 20 mg/kg/day [3]: 59 ± 3%

O=c1[nH][nH]c(=O)c2c(Cl)cccc12 [Compound 12, 5-Chloro-2,3-Dihydrophthalazine-1,4-Dione]
response vs control in vivo at 20 mg/kg/day [1]: 72 ± 5% | response vs control in vivo at 20 mg/kg/day [2]: 69 ± 4% | response vs control in vivo at 20 mg/kg/day [3]: 86 ± 5%

O=c1[nH]nc(O)c2cc(Cl)ccc12 [Compound 13]
response vs control in vivo at 20 mg/kg/day [1]: 72 ± 4% | response vs control in vivo at 20 mg/kg/day [2]: 64 ± 5% | response vs control in vivo at 20 mg/kg/day [3]: 65 ± 4%

Cc1cccc2c(=O)[nH]nc(O)c12 [Compound 14]
response vs control in vivo at 20 mg/kg/day [1]: 80 ± 4% | response vs control in vivo at 20 mg/kg/day [2]: 75 ± 3% | response vs control in vivo at 20 mg/kg/day [3]: 73 ± 3%

Cc1ccc2c(=O)[nH][nH]c(=O)c2c1 [Compound 15, 6-methyl-2,3-dihydrophthalazine-1,4-dione]
response vs control in vivo at 20 mg/kg/day [1]: 66 ± 8% | response vs control in vivo at 20 mg/kg/day [2]: 55 ± 4% | response vs control in vivo at 20 mg/kg/day [3]: 54 ± 4%

COc1cccc2c(=O)[nH]nc(O)c12 [Compound 16]
response vs control in vivo at 20 mg/kg/day [1]: 82 ± 5% | response vs control in vivo at 20 mg/kg/day [2]: 78 ± 3% | response vs control in vivo at 20 mg/kg/day [3]: 81 ± 4%

COc1ccc2c(=O)[nH]nc(O)c2c1 [Compound 17]
response vs control in vivo at 20 mg/kg/day [1]: 77 ± 5% | response vs control in vivo at 20 mg/kg/day [2]: 76 ± 4% | response vs control in vivo at 20 mg/kg/day [3]: 69 ± 3%

O=C(O)CCn1[nH]c(=O)c2ccccc2c1=O [Compound 18, 2-(2'-Carboxyethyl)-2,3-Dihydrophthalazine-1,4-Dione]
response vs control in vivo at 20 mg/kg/day [1]: 54 ± 6% | response vs control in vivo at 20 mg/kg/day [2]: 34 ± 3% | response vs control in vivo at 20 mg/kg/day [3]: 60 ± 4%

CCOC(=O)Cn1[nH]c(=O)c2ccccc2c1=O [Compound 19, 2-(1'-Carbethoxymethyl)-2,3-Dihydrophthalazine-1,4-Dione]
response vs control in vivo at 20 mg/kg/day [1]: 78 ± 6% | response vs control in vivo at 20 mg/kg/day [2]: 69 ± 5% | response vs control in vivo at 20 mg/kg/day [3]: 73 ± 4%

CC(=O)CCn1[nH]c(=O)c2ccccc2c1=O [Compound 20, 2-(3'-Oxobutyl)-2,3-Dihydrophthalazine-1,4-Dione]
response vs control in vivo at 20 mg/kg/day [1]: 72 ± 6% | response vs control in vivo at 20 mg/kg/day [2]: 59 ± 3% | response vs control in vivo at 20 mg/kg/day [3]: 70 ± 7%

O=c1[nH]n(-c2ccccc2)c(=O)c2ccccc12 [Compound 21, 2-Phenyl-2,3-Dihydrophthalazine-1,4-Dione]
response vs control in vivo at 20 mg/kg/day (216 h, read-out: Serum Cholesterol Day 9, percent control ± standard deviation): 59 ± 5% | response vs control in vivo at 20 mg/kg/day (384 h, read-out: Serum Cholesterol Day 16, percent control ± standard deviation): 58 ± 4% | response vs control in vivo at 20 mg/kg/day (384 h, read-out: Serum Triglyceride Day 16, percent control ± standard deviation): 65 ± 3%

O=c1c2ccccc2c(O)nn1-c1ccccc1Cl [Compound 22]
response vs control in vivo at 20 mg/kg/day [1]: 72 ± 5% | response vs control in vivo at 20 mg/kg/day [2]: 67 ± 3% | response vs control in vivo at 20 mg/kg/day [3]: 68 ± 4%

O=c1c2ccccc2c(O)nn1-c1cccc(Cl)c1 [Compound 23]
response vs control in vivo at 20 mg/kg/day [1]: 73 ± 4% | response vs control in vivo at 20 mg/kg/day [2]: 62 ± 3% | response vs control in vivo at 20 mg/kg/day [3]: 69 ± 5%

O=c1[nH]n(-c2ccc(Cl)cc2)c(=O)c2ccccc12 [Compound 24, 2-(4'-chlorophenyl)-2,3-dihydrophthalazine-1,4-dione]
response vs control in vivo at 20 mg/kg/day [1]: 60 ± 3% | response vs control in vivo at 20 mg/kg/day [2]: 54 ± 4% | response vs control in vivo at 20 mg/kg/day [3]: 59 ± 5%

Cc1ccccc1-n1nc(O)c2ccccc2c1=O [Compound 25]
response vs control in vivo at 20 mg/kg/day [1]: 82 ± 7% | response vs control in vivo at 20 mg/kg/day [2]: 66 ± 5% | response vs control in vivo at 20 mg/kg/day [3]: 76 ± 6%

Cc1cccc(-n2nc(O)c3ccccc3c2=O)c1 [Compound 26]
response vs control in vivo at 20 mg/kg/day [1]: 87 ± 6% | response vs control in vivo at 20 mg/kg/day [2]: 74 ± 4% | response vs control in vivo at 20 mg/kg/day [3]: 65 ± 3%

Cc1ccc(-n2nc(O)c3ccccc3c2=O)cc1 [Compound 27]
response vs control in vivo at 20 mg/kg/day [1]: 89 ± 5% | response vs control in vivo at 20 mg/kg/day [2]: 73 ± 6% | response vs control in vivo at 20 mg/kg/day [3]: 57 ± 2%
